The record followed here is US6787672B2, “Substituted chalcones as therapeutic compounds” (Cancer Research Technology Limited, priority 2000, dated 2004).

Each structure is given as a SMILES string. Read-outs that look alike come from different tables or passages of the source.

The subject of data set [1] is colon cancer cell line HCT-116. Kind of data set: MTT assay, tumour cell growth inhibition, colon HCT-116. In kind it is cell-based, human. Particulars: for IC50: Homo sapiens, Colon HCT-116, MTT, 96 h. The source says: (§1) The human tumour cell lines were the breast cancer cell line MCF-7, the colon cancer cell line HCT-116, and the lung cancer cell line A-549. The MTT assay was used, which exploits the ability of living cells to metabolise the water soluble tetrazolium salt 3-[4,5-dimethylthiazol-2yl-2,5-diphenyl tetrazolium bromide (MTT) into a water insoluble formazan precipitate (Carmichael et al, 1987). The purple precipitate can then be dissolved in an organic solvent and the optical density determined as a measure of cell survival. Compounds were tested concurrently for a true comparison.
(§2) The compound under study was dissolved in DMSO to yield a 10 mM stock solution. […] Cells were seeded into sterile flat-bottomed 96-well plates at a known initial seeding density (MCF-7 1.5×10E3, HCT-116 1×10E3, A549 2×10E3). The cells were plated in RPMI 1640 medium supplemented with 10% heat-inactivated Foetal Calf Serum solution. The plates were then incubated for 24 h at 37° C., 5% CO2 to allow cell adherence. 20 μl of the appropriate drug dilution (from serial dilutions in medium from 10 mM stock) was added to the wells (to give a final well volume of 200 μl). Plates were returned to the incubator for 96 h, and then 50 μl of MTT was added to each well. After a further 4 h incubation, the medium and any unconverted MTT was aspirated from the wells and the formazan precipitate dissolved by the addition of 100 μl of DMSO and several minutes agitation. The absorbance at A450 was then recorded on a plate reader, and the results expressed as a % survival of DMSO treated controls.
A general note: Formazan colour is commonly taken as a measure of viable cells.

For another data set, the target named is T1, CYP1B1 enzyme (Homo sapiens, UniProt Q16678).
T1 construct: A microsomal preparation of human tumour tissue expressing the CYP1B1 enzyme was prepared; from tissue; host or cells: human tumour tissue (microsomal preparation)
T1 sequence (Q16678 1-543): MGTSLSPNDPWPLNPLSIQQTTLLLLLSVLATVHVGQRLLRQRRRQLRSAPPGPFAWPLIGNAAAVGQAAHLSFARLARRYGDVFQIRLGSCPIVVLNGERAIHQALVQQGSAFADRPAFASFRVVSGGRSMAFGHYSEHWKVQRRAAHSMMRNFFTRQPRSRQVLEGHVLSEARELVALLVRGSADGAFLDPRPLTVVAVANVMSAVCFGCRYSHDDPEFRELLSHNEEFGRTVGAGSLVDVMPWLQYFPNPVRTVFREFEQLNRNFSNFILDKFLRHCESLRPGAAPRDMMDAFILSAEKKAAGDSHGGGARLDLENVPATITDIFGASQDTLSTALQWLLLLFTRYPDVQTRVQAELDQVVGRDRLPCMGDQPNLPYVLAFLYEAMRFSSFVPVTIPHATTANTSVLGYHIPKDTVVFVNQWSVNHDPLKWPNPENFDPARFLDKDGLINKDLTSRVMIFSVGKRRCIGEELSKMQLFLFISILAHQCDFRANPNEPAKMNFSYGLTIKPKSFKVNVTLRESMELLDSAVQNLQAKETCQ
Kind of data set: Metabolism by microsomal preparation of human tumour tissue expressing CYP1B1, HPLC. In kind it is in vitro ADME. Particulars: human tumour microsomes, NADPH, 1 h, 37° C., pH 7.6. The method, then:
A microsomal preparation of human tumour tissue expressing the CYP1B1 enzyme was prepared essentially as described by the method of Barrie et al., 1989. The experiment was carried out at 37° C., under yellow light. An array of 1.5 ml centrifuge tubes were set up in a water bath shaker-under aerobic conditions. To each tube was then added 500 μl of pH 7.6 buffer (0.1 M NaK2PO4), followed by NADPH (5 μl of a 25 mM stock solution). The microsomal preparation (80 μl) was then added and the tubes preincubated for 5 min at 37° C.
The prodrug substrate, compound II, was then added (10 μl of a 5 mM stock solution) and incubated for 1 h at 37° C. After 1 h the tubes were transferred to an ice/water cooling bath (0° C.). The tubes were then centrifuged at 15,000 rpm for 30 min. A sample of the supernatant (100 μl) was then taken and analysed by HPLC. HPLC conditions: Spherisorb C18 (25 cm×4.6 mm id), used without guard column. Flow rate 1 ml/min. Eluent 75% 0.1 M KH2PO4 and 25% acetonitrile.
The hydroxylated metabolite, compound III, was detected by HPLC, and confirmed by comparison with the authentic hydroxylated synthetic compound III.

The test system of the next data set is splenocytes. The data set can be described thus: Splenocyte anti-proliferation assay (Con A stimulated, tritiated thymidine). The class given is cell-based. The following applies: FIG. 1, triplicate. The source says:
The anti-inflammatory effects of Compound II (DMU-120) were examined (in triplicate) using a splenocyte anti-proliferation assay.
The splenocyte anti-proliferation assay has been developed to identify compounds that have useful anti-inflammatory properties for the treatment of auto-inflammatory diseases such as rheumatoid arthritis. See, for example, Yamashita et al., 1994. This well known assay is described in detail in, for example, Mosmann, 1983. In this assay, splenocyte proliferation is stimulated by the inflammatory response inducer conconavilin A (Con A). Cell proliferation is monitored by detecting radiation (counts per minute, cpm) from a radio label (tritiated thymidine) which is incorporated only into proliferating cells.
The compound was assayed as a solution in dimethylsulfoxide (DMSO) as solvent. The solvent control is also shown for comparison. Other controls are also shown. “ConA” denotes the signal (cpm) detected for a control where cell proliferation is stimulated by ConA in the absence of a test compound. “Med” denotes the signal (cpm) detected for the cell culture medium alone. “Bkg” denotes the background radiation level (cpm).

Data set [2] concerns breast cancer cell line MCF-7. Kind of data set: MTT assay, tumour cell growth inhibition, breast MCF-7. The class given is cell-based, human. Particulars: for IC50: Homo sapiens, MCF7, Breast MCF-7, MTT, 96 h, read-out: IC50, dose required for 50% inhibition of tumour cell growth.
Text: as §1, §2

The subject of data set [3] is lung cancer cell line A-549. The data set can be described thus: MTT assay, tumour cell growth inhibition, lung A-549. The class given is cell-based, human. The following applies: for IC50: Homo sapiens, A549, Lung A-549, MTT, 96 h, read-out: IC50, dose required for 50% inhibition of tumour cell growth.
Text: as §1, §2

Setting [4] is: read-out: IC50, dose required for 50% inhibition of tumour cell growth.

By IC50 is commonly meant the point on the concentration scale where inhibition reaches its midpoint. One may read the melting point as the temperature, or range, at which the solid turns liquid. `COc1ccc(/C=C/C(=O)c2cc(OC)cc(OC)c2)cc1` [Compound II, (E)-1-(4-Methoxyphenyl)-3-(3,5-dimethoxyphenyl)prop-1-en-3-one] showed a melting point of 87 to 88 °C. The “Selectivity Factor (Prodrug/Metabolite)” value in data set [1] (Colon HCT-116, IC50 Compound II / IC50 Compound III) is listed as 15000. For the same molecule, the IC50 in data set [1] (setting [4]) was 1200 nM. For the same molecule, the “Metabolic conversion by CYP1B1 (aromatic hydroxylation)” value on CYP1B1 enzyme is “converted to the hydroxylated metabolite compound III”. Moreover, in the data set on splenocytes, the “Concentration showing anti-inflammatory effects on splenocyte proliferation” value is listed as “less than 10 μM”. For the same molecule, the “Selectivity Factor (Prodrug/Metabolite)” value in data set [2] (Breast MCF-7, IC50 Compound II / IC50 Compound III) was 1100. Besides, in data set [2], the IC50 stood at 690 nM. Further, in data set [3], the IC50 amounted to 6600 nM. Also, the “Selectivity Factor (Prodrug/Metabolite)” value in data set [3] (Lung A-549, IC50 Compound II / IC50 Compound III) came to 80.

Take `COc1cc(OC)cc(C(=O)/C=C/c2ccc(OC)c(O)c2)c1` [Compound III, (E)-1-(3-Hydroxy-4-methoxyphenyl)-3-(3,5-dimethoxyphenyl)prop-1-en-3-one]: the melting point amounted to 129 °C. Besides, the IC50 in data set [1] (setting [4]) worked out at 0.08 nM. Further, the IC50 in data set [1] (read-out: IC50 against colon tumour cell line HCT-116, restated in nM) amounted to 0.08 nM. The IC50 in data set [2] came out at 0.65 nM. Further, in data set [3], the IC50 amounted to 80 nM.

`COc1cc(OC)cc(C(=O)/C=C/c2ccc(OC)cc2OC)c1` [Compound IV, (E)-1-(2,4-dimethoxyphenyl)-3-(3,5-dimethoxyphenyl)prop-1-en-3-one]: the IC50 in data set [2] amounted to 0.1 nM.
